Source: ChEMBL document CHEMBL1833820, “Benzofurans from Styrax agrestis as acetylcholinesterase inhibitors: structure-activity relationships and molecular modeling studies” (J Nat Prod, 2011)
Activity calls are given as the source filed them. No cut-off for these calls is given here.

How the values were obtained:
Acetylcholinesterase [1] = molecular target: T1, Acetylcholinesterase (Homo sapiens, UniProt P22303); experiment: Inhibition of human serum BChE using butyrylthiocholine iodide as substrate by spectrophotometric method
T1 sequence (P22303 whole entry): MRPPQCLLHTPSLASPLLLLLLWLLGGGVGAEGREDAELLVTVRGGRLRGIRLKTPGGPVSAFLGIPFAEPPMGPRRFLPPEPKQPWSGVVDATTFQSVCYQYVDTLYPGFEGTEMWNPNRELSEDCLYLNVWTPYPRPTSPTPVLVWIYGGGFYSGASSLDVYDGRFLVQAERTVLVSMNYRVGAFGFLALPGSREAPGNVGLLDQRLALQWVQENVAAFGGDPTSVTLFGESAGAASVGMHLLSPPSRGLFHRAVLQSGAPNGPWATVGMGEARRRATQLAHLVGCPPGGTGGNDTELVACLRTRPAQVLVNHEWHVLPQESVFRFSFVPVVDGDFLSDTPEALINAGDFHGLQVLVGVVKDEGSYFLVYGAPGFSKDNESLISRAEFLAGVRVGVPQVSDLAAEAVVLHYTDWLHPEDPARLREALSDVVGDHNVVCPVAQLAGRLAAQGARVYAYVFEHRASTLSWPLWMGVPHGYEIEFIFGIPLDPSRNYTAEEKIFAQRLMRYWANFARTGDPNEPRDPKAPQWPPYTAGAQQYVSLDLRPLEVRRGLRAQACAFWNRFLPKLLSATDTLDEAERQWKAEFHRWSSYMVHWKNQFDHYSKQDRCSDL

[2] = molecular target: Acetylcholinesterase (Electrophorus electricus) (UniProt O42275)
Chain of Acetylcholinesterase (Electrophorus electricus) (O42275 24-633 limits assumed): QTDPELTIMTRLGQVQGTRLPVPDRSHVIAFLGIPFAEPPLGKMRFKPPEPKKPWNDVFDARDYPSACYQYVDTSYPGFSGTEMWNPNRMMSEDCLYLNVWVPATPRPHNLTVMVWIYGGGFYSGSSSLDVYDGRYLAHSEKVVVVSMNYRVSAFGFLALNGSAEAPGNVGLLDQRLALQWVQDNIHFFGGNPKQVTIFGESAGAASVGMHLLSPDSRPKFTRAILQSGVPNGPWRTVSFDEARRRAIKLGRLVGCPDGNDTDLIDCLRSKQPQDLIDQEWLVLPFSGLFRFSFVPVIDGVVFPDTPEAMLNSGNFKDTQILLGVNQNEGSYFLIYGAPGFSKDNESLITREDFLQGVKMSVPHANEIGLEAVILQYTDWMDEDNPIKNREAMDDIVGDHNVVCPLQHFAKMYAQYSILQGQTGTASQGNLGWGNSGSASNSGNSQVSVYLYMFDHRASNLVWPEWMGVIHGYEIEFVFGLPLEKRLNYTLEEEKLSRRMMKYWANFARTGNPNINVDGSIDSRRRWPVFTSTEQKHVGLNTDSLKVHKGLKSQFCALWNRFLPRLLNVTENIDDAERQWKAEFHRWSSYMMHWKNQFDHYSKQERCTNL
Description: (§1) Inhibition of electric eel AChE using acetylthiocholine iodide as substrate by spectrophotometric method

Acetylcholinesterase [3] = molecular target: T1, Acetylcholinesterase
Description: (§2) Inhibition of human recombinant AChE using acetylthiocholine iodide as substrate by spectrophotometric method

Acetylcholinesterase [4] = molecular target: Acetylcholinesterase (Electrophorus electricus, UniProt O42275)
Chain of Acetylcholinesterase (Electrophorus electricus, UniProt O42275) (O42275 whole entry): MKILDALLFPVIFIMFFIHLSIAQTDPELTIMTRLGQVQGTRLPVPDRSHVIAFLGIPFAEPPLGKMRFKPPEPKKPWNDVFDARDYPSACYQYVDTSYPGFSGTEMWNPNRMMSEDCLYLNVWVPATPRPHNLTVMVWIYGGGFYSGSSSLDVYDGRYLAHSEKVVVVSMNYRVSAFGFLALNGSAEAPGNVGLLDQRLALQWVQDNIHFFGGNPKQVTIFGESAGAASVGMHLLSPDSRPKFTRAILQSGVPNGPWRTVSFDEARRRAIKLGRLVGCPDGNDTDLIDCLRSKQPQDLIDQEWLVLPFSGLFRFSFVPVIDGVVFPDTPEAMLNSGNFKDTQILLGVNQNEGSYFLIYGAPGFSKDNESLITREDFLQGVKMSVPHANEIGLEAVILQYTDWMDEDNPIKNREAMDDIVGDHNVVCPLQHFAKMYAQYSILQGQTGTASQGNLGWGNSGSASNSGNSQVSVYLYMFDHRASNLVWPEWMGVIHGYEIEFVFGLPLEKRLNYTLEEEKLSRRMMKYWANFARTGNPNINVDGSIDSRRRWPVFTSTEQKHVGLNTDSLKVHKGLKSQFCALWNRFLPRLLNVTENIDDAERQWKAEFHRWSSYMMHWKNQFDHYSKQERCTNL
Description: as §1

Acetylcholinesterase [5] = molecular target: T1, Acetylcholinesterase; remark: listed apart in the source
Description: as §2

Row | Structure (SMILES) | inhibition (Acetylcholinesterase [1]) | inhibition [2] | inhibition (Acetylcholinesterase [3]) | IC50 (Acetylcholinesterase [4]) [nM] | IC50 (Acetylcholinesterase [5]) [nM]
1 | COc1cc(CCC(=O)O)cc2cc(-c3ccc4c(c3)OCO4)oc12 | inactive | inactive | inactive | – | –
2 | COc1cc(CCCO)cc2cc(-c3ccc4c(c3)OCO4)oc12 | inactive | inactive | inactive | – | –
3 | COc1cc(CCCOC(=O)Nc2ccccc2)cc2cc(-c3ccc4c(c3)OCO4)oc12 | inactive | – | – | 3300 | 4500
4 | CCCCCCCC/C=C\CCCCCCCC(=O)OCCCc1ccc2oc(-c3ccc4c(c3)OCO4)cc2c1 | inactive | – | – | 2200 | 3100
5 | CCCC(=O)OCCCc1cc(OC)c2oc(-c3ccc4c(c3)OCO4)cc2c1 | inactive | – | – | – | –
6 | O=CCCCCCCCC(=O)OCCCc1ccc2oc(-c3ccc4c(c3)OCO4)cc2c1 | inactive | – | inactive | – | –
7 | COc1cc(CCCOC(C)=O)cc2cc(-c3ccc4c(c3)OCO4)oc12 | inactive | inactive | inactive | – | –
8 | OCCCc1ccc2oc(-c3ccc4c(c3)OCO4)cc2c1 | inactive | inactive | inactive | – | –
9 | COc1cc(CCCOC(=O)NC(C)(C)C)cc2cc(-c3ccc4c(c3)OCO4)oc12 | inactive | – | – | – | –
10 | COc1cc(CCCOC(=O)CCCCCCCC=O)cc2cc(-c3ccc4c(c3)OCO4)oc12 | inactive | – | inactive | – | –
11 | COc1cc(CCC=O)cc2cc(-c3ccc4c(c3)OCO4)oc12 | inactive | inactive | inactive | – | –
12 | COc1cc(CCCOC(=O)C(C)C)cc2cc(-c3ccc4c(c3)OCO4)oc12 | inactive | – | – | – | –
13 | CC[C@H](C)C(=O)OCCCc1cc(OC)c2oc(-c3ccc4c(c3)OCO4)cc2c1 | inactive | – | – | 4800 | 5900
14 | CCCCC/C=C\C/C=C\CCCCCCCC(=O)OCCCc1cc(OC)c2oc(-c3ccc4c(c3)OCO4)cc2c1 | inactive | – | – | 1400 | 1700
15 | CCC(=O)OCCCc1cc(OC)c2oc(-c3ccc4c(c3)OCO4)cc2c1 | inactive | inactive | inactive | – | –
16 | CCCCC/C=C\C/C=C\CCCCCCCC(=O)OCCCc1ccc2oc(-c3ccc4c(c3)OCO4)cc2c1 | inactive | – | – | 2000 | 2700
17 | CC[C@H](C)C(=O)OCCCc1ccc2oc(-c3ccc4c(c3)OCO4)cc2c1 | inactive | – | – | 5500 | 6100
18 | CCCCCCCC/C=C\CCCCCCCC(=O)OCCCc1cc(OC)c2oc(-c3ccc4c(c3)OCO4)cc2c1 [EGONOL OLEATE] | inactive | – | – | 1400 | 1800
19 | CC(=O)OCCCc1ccc2oc(-c3ccc4c(c3)OCO4)cc2c1 | inactive | inactive | inactive | – | –
